Source: patent US6713098B2, “Phytochemotherapy for cancer” (priority 2001, dated 2004)

Tested on: MCF-7 cells
Test: Cell growth inhibition by [3H]thymidine incorporation, PRPC fractions and PRPC/IEC/RPC sub-fractions
Format: cell-based, human
Protocol: Sub-confluent cells were serum-starved overnight and then were left untreated, i.e., no serum (−), were treated with serum (+) or with isolated V. amygdalina fractions 8, 9, 10, 14, 15, 16, 17, 18, 19, or 20 for 18 hours. Following incubation, all cells were pulsed with 1 μCi/ml [^3H]thymidine for an additional 4-6 hours as described in Example 2. The results represent the mean ±SD of three independent experiments. *P<0.05; **P<0.01.
Sub-confluent cells were serum-starved overnight and then were left untreated, i.e., no serum (−), were treated with serum (+) or with 100 μg/ml of V. amygdalina fractions 15, 16, 17, 18, 19, or 20 for 18 hours. Following incubation, all cells were pulsed with 1 μCi/ml [^3H]thymidine for an additional 4-6 hours as described in Example 2. The results represent the mean ±SD of three independent experiments. *P<0.05; **P<0.01.
Sub-confluent cells were serum-starved overnight and then were left untreated, i.e., no serum (−), were treated with serum (+) or with 100 ng/ml of V. amygdalina fractions 19-5-16, 19-5-17, or 19-5-13 for 18 hours. […]
Fraction 19 of the PRPC separation described in Example 3 was subjected to IEC fractionation as described in Example 4 to produce 10 IEC sub-fractions designated IEC sub-fractions 19-1 to 19-10. […] Finally, Two RPC sub-fractions, specifically 19-5-16 and 19-5-17, were further analyzed and shown to be pure peptides. […]

## 19-5-16 (DTKDVVNVTG)
100 nanograms/ml, MCF-7, FIG. 5
  inhibition of cell DNA synthesis: 4 fold
RPC sub-fractions of 19-5, assay as in Example 6
  potency in growth inhibition assay (in words): exceptionally high potency
